“Also recorded” adds a separate entry of the source. Bounds are passed on as bounds.

Here are results for four compounds from patent publication US20190187129A1, “CANCER MODELING PLATFORMS AND METHODS OF USING THE SAME” (Wake Forest University Health Sciences, priority 2016, published 2019).

Data set [1] relates to CACO2 cells. Briefly: 3D hyaluronan-based hydrogel construct drug screen, MTS assay. The following applies: Homo sapiens, Caco-2, 3D, 100 μM, CACO2, drug day 5, assay day 7; read-out: percent relative cell viability (MTS, relative to control). On the procedure:
(§1) Polydimethylsiloxane, or PDMS, was used to coat the bottom of the wells. Cells were embedded within the hyaluronan-based hydrogel and were given 5 days to acclimate to their three-dimensional environment and on day 5 were administered different anticancer drug solutions (FIG. 7, panel A). […] At 100 μM concentrations of Regorafenib and Sorafenib, cellular viability remained below 25% that of the control for all four of the colorectal cancer cell lines utilized. The only exception to this was when 100 μM Regorafenib was administered to CACO2 cells and the percent relative cell viability rose to approximately 48%. […] At a 100 μM concentration, Dabrafenib had greater efficacy in targeting the HCT116 and SW480 cell lines, which had relative cellular viability values of 38% and 43%, as opposed to the HT29 and CACO2 cell lines, which had higher cell viability values of 93% and 75%. 100 μM concentrations of Trametinib produced relative cellular viability results that fell within a narrow range for the four colorectal cell lines with values of 54% for SW480 cells and 74% for HT29 cells.
(§2) Well Coating with PDMS and Cell Isolation: Polydimethylsiloxane, or PDMS, (DOW Corning, North Carolina, USA) was used at a 1:10 curing agent ratio to coat the bottom of the 96-well plates and the plates were then placed in a 80° C. oven for at least one hour. Cells were passaged in the same methods previously mentioned (A) with the desire to place 10 μL 3D hyaluronan-based hydrogel constructs containing 100,000 cells each ([…]) into the wells of a 96-wells plate for all four colorectal cancer cell types. Depending on the cell count, a desired number of cells were isolated in new 15 mL centrifuge tubes as cell-media solution and underwent centrifugation.
(§3) Hydrogel Components of the Single-Cell Type Constructs: The hyaluronic acid-based hydrogel (ESI BIO, California, USA) was produced using a mixture of three components: Heprasil, Gelin-S, and Extralink PEGDA 2-ARM Acrylate crosslinker. These components were mixed in a 2:2:1 ratio by volume. 0.1% Irgacure photoinitiator (Sigma-Aldrich, Missouri, USA) was added to each of the three components prior to their mixture and the three components were placed in a 37° C. incubator for a ˜30 minutes to solubilize.
Forming Organoid Constructs: Once solubilized, the media was aspirated from the 15 mL centrifuge tube (post-centrifugation) and the cells were isolated as a pellet. The hydrogel components were added directly into the centrifuge tube containing the cells and the cells were carefully resuspended in the mixture. 10 μL of the gel-cell solution was placed in the center of the wells on the PDMS coating. This was continued for all wells containing cells and was repeated for each cell type. […]

The subject of data set [2] is SW480 cells. Briefly: 2D drug screen, MTS assay. The settings on record: Homo sapiens, read-out: relative cellular viability (MTS, relative to control). The format is cell-based. As to the method: (§4) Cancer cells seeded directly into wells were given 4-5 hours to reattach to the bottom of the wells. After that time, the anticancer drug solutions were administered in place of the media (FIG. 6, panel A) and an MTS assay was carried out 2 days later to determine cell viability. […] At 100 μM concentrations of Regorafenib and Sorafenib, and 100 mM concentrations of 5-FU, cellular viability remained below 20% that of the control for all four of the colorectal cancer cell lines utilized. However, screening with Dabrafenib and Trametinib produced diverging results from the other three anticancer drugs at higher concentrations. […] When treated with 1 mM concentrations of 5-FU, relative cellular viability was approximately 39% for SW480 cells and remained between 10%-22% for the HCT116, HT29, and CACO2 cells. These values were considerably lower than the relative cellular viability values for the lowest concentrations of the other anticancer drugs.
(§5) Cell Seeding: The original 15 mL centrifuge tubes containing the 10 mL of DMEM-10, cells, and trypsin were placed into a centrifuge. The centrifugation setting was 1500 RPM and at maximal acceleration for 5 minutes. After that time, the media and trypsin mixture was aspirated from the tubes, leaving the cell pellets still intact. 5 mL of DMEM-10 was then pipetted into each of the tubes, resuspending the cells in the process. Calculated volumes of the 5 mL cell-media solution were determined to ensure that 25,000 cells of each of the four colorectal cancer cell lines were seeded directly into each of the wells of a polystyrene clear-bottom 96-well plate. 100 μL of DMEM-10 media was then pipetted directly into the wells. The 96-well plates were incubated at 37° C. and 5% CO2 for 5 hours to allow the cells to reattach themselves to the bottom of the wells until media was aspirated and anticancer drug solutions were added.
(§6) Addition of Anticancer Drugs for Screening: The anticolorectal cancer drugs used in this screening included 5-FU, Regorafenib, Sorafenib, Trametinib, and Dabrafenib (Sigma-Aldrich, Missouri, USA)). High concentration drug stock solutions were created with DMSO. Lower concentration drug solutions were created by mixing the anticancer drug stocks with DMEM-10 media. […] drug solutions were generated for 5-FU; 1 μM, 10 μM, and 100 μM drug solutions were generated for Regorafenib, Sorafenib, and Dabrafenib; and 1 nM, 10 nM, and 100 nM drug solutions were generated for Trametinib. Media was carefully aspirated from the wells and 200 μL of the various drug-media solutions were placed into the wells containing cells. Three duplicates were generated for each anticancer drug concentration with each of the different cell types to calculate averages and run statistics on the data generated. Well plates were then incubated at 37° C. and 5% CO2 for […].
(§7) Cell viability assay: Cell viability was determined 48 hours after exposure to the anticancer drug solutions. The viability of the cells was examined by the CellTiter 96® AQueous One Solution Cell Proliferation (MTS) assay (Promega, Wisconsin, USA). The anticancer drug-media solutions were aspirated from the wells and 200 μL of the MTS reagent was carefully pipetted into the wells. The incubation time for the cells with the MTS reagent was approximately 45 minutes. The cell viability assay was performed on another 96-well plate and the absorbance was quantified by the EnVision Multilabel Plate Reader (PerkinElmer, California, USA).
For orientation: Tetrazolium dyes change colour on reduction, which living cells bring about.

The test system of data set [3] is HCT116 cells. Description: cells. The format is cell-based. The following applies: Homo sapiens, HCT-116, read-out: relative cellular viability (MTS, relative to control). On the procedure: as §4, §5, §6, §7
In data set [4] the test system is HCT116 cells. Description: 3D hyaluronan-based hydrogel construct drug screen, MTS assay. The following applies: Homo sapiens, HCT-116, 3D, 100 μM, HCT116, drug day 5, assay day 7; read-out: percent relative cell viability (MTS, relative to control). On the procedure:
Polydimethylsiloxane, or PDMS, was used to coat the bottom of the wells. Cells were embedded within the hyaluronan-based hydrogel and were given 5 days to acclimate to their three-dimensional environment and on day 5 were administered different anticancer drug solutions (FIG. 7, panel A). […], Dabrafenib had greater efficacy in targeting the HCT116 and SW480 cell lines, which had relative cellular viability values of 38% and 43%, as opposed to the HT29 and CACO2 cell lines, which had higher cell viability values of 93% and 75%. […]
as §2, §3
(§8) Forming Organoid Constructs: Once solubilized, the media was aspirated from the 15 mL centrifuge tube (post-centrifugation) and the cells were isolated as a pellet. The hydrogel components were added directly into the centrifuge tube containing the cells and the cells were carefully resuspended in the mixture. 10 μL of the gel-cell solution was placed in the center of the wells on the PDMS coating. This was continued for all wells containing cells and was repeated for each cell type. After this point, the gel can be exposed to UV light from a BlueWave 200 spot light (Dymax, Connecticut, USA) to solidify the hydrogel, or one can wait ˜30 minutes for the gel to form on its own. DMEM-10 media was then placed in the wells and the constructs were incubated for 5 days.
(§9) Anticancer Drug Screening and Cell Viability: The same five anticancer drugs were added on Day 5 and the cell viability assay occurred on Day 7.

Data set [5] deals with SW480 cells. The data set is described as above. The format is cell-based. The settings on record: for viability at 100 µM: Homo sapiens, SW480, drug day 5, assay day 7, read-out: percent relative cell viability (MTS, relative to control). On the procedure:
as §1, §2, §3, §8, §9

Data set [6] relates to HT29 cells. Described as above. The format is cell-based. The settings on record: for viability at 100 µM: Homo sapiens, HT-29, 100 μM, HT29, drug day 5, assay day 7, read-out: percent relative cell viability (MTS, relative to control). On the procedure: as §1, §2, §3, §8, §9
Data set [7] deals with CACO2 cells. Description: cells. The format is cell-based. The settings on record: Homo sapiens, Caco-2, read-out: relative cellular viability (MTS, relative to control). As to the method: as §4, §5, §6, §7
The subject of data set [8] is HT29 cells. Description: cells. The format is cell-based. The following applies: Homo sapiens, HT-29, read-out: relative cellular viability (MTS, relative to control). As to the method:
as §4, §5, §6, §7

The test system of data set [9] is liver, cardiac, lung, testis, and brain organoids. Description: 5 organoid integrated drug screening in a miniaturized microfluidic platform, live/dead staining. The format is cell-based. The following applies: miniaturized system, 20 uM. On the procedure:
Design and Results of Experiments: Adhesive film-based microfluidic platforms were fabricated as described below. As with the full-scale platform described in Example 4, five tissue constructs were initiated containing liver, cardiac, lung, testis, and brain organoids and maintained for 7 days prior to the start of the drug study. At this point, the liver modules were removed from half of the platforms. Capecitabine (20 uM) was administered to all platforms after which viability was assessed through live/dead staining or cardiac beating behavior after 7 days of exposure (day 14 of total study).
FIG. 14 provides an overview of this fabrication methodology.

The test system is the same in data set [10]. Description: 5 organoid integrated drug screening (standard size platform), live/dead staining. The format is cell-based. The settings on record: 20 uM. On the procedure: Design and Results of Experiments: Five tissue platforms were initiated containing liver, cardiac, lung, testis, and brain organoids and maintained for 7 days prior to the start of the drug study. At this point, the liver modules were removed from half of the platforms. Capecitabine (20 uM) was administered to all platforms after which viability was assessed through live/dead staining or cardiac beating behavior after 7 days of exposure (day 14 of total study).

Setting [11] is: 7 days of exposure, with liver present.
Setting [12] is: 7 days of exposure, without liver.

The viability is the share of living cells, or the viability signal relative to a control. `CC(C)(C)c1nc(-c2cccc(NS(=O)(=O)c3c(F)cccc3F)c2F)c(-c2ccnc(N)n2)s1` [Dabrafenib]: the viability at 100 µM was 75% in the data set with CACO2 cells [1]; ~93% with SW480 cells [2]; ~36% in the data set with HCT116 cells [3]; 38% in the data set with HCT116 cells [4]; 43% with SW480 cells [5]; 93% in the data set on HT29 cells [6].

`CNC(=O)c1cc(Oc2ccc(NC(=O)Nc3ccc(Cl)c(C(F)(F)F)c3)cc2)ccn1` [Sorafenib]: the viability at 100 µM with CACO2 cells [1] was < 25%; in the data set with SW480 cells [2] it was < 20%; with CACO2 cells [7], < 20%; with HCT116 cells [3], < 20%; in the data set on HT29 cells [8], < 20%; in the data set on HCT116 cells [4], < 25%. The viability at 100 µM in the data set with SW480 cells [5] and with HT29 cells [6] was < 25% each time.

As for `CC(=O)Nc1cccc(-n2c(=O)n(C3CC3)c(=O)c3c(Nc4ccc(I)cc4F)n(C)c(=O)c(C)c32)c1` [Trametinib], the viability at 0.1 µM is ~58% with SW480 cells [2] (100 nM) and ~39% in the data set on CACO2 cells [7]. The “percent relative cell viability (MTS, relative to control)” value in the data set on SW480 cells [5] (100 μM concentrations of Trametinib, SW480) came to 54%; in the data set on HT29 cells [6] (100 μM concentrations of Trametinib, HT29), 74%.

For the compound `CCCCCOC(=O)Nc1nc(=O)n([C@@H]2O[C@H](C)[C@@H](O)[C@H]2O)cc1F` [capecitabine], the “brain organoid viability (LIVE/DEAD)” value in [9] (7 days of exposure) is recorded as “brain organoid viability is high”; in [10] (7 days of exposure, with and without liver), “brain organoids suffered in both groups”. Besides, the “cardiac and lung organoid toxicity (LIVE/DEAD)” value in data set [9] (setting [11]) is “heart and lung toxicity”; in [10] (setting [11]) it was “heart and lung toxicity; also recorded: increased cell death in cardiac and lung organoids”. Besides, the “cardiac and lung organoid viability (LIVE/DEAD)” value in data set [9] (setting [12]) was “cardiac and lung organoid viability does not decrease”; in data set [10] (setting [12]) it was “cardiac and lung organoid viability does not decrease”. The “metabolism by liver organoids” value in data set [9] (with liver present) and in data set [10] (with liver present) was “metabolized into the toxic drug 5-FU” in each case.
